Among the data in US8802661B2, “C-28 amides of modified C-3 betulinic acid derivatives as HIV maturation inhibitors” (priority 2010, dated 2014) are EC50 values, retold here.

Each structure is given as a SMILES string. pEC50: −log10 of the molar value.

The test system of the first test is recombinant NL4-3 virus (Renilla luciferase in nef, Gag P373S). Description: HIV Cell Culture Assay (luciferase reporter virus in MT-2 cells). The test is classed as cell-based. The settings on record: NL43. On the procedure: MT-2 cells and 293T cells were obtained from the NIH AIDS Research and Reference Reagent Program. MT-2 cells were propagated in RPMI 1640 media supplemented with 10% heat inactivated fetal bovine serum, […]. The 293T cells were propagated in DMEM media supplemented with 10% heat inactivated fetal bovine serum (FBS), 100 units/ml penicillin G and 100 μg/ml streptomycin. The proviral DNA clone of NL4-3 was obtained from the NIH AIDS Research and Reference Reagent Program. A recombinant NL4-3 virus, in which a section of the nef gene from NL4-3 was replaced with the Renilla luciferase gene, was used as a reference virus. In addition, residue Gag P373 was converted to P373S. Briefly, the recombinant virus was prepared by transfection of the altered proviral clone of NL4-3. Transfections were performed in 293T cells using LipofectAMINE PLUS from Invitrogen (Carlsbad, Calif.), according to manufacturer's instruction. The virus was titered in MT-2 cells using luciferase enzyme activity as a marker. Luciferase was quantitated using the Dual Luciferase kit from Promega (Madison, Wis.), with modifications to the manufacturer's protocol. The diluted Passive Lysis solution was pre-mixed with the re-suspended Luciferase Assay Reagent and the re-suspended Stop & Glo Substrate (2:1:1 ratio). Fifty (50) μL of the mixture was added to each aspirated well on assay plates and luciferase activity was measured immediately on a Wallac TriLux (Perkin-Elmer). Antiviral activities of inhibitors toward the recombinant virus were quantified by measuring luciferase activity in cells infected for 4-5 days with NLRluc recombinants in the presence serial dilutions of the inhibitor. Table 1 is the key for the data in Table 2.
(Reporter assays use an easily measured gene product as a stand-in for the process of interest.)
Broadly, the pEC50 is the EC50 on a negative log10 scale, so that one unit is a factor of ten. In the case of `C=C(C)[C@@H]1CC[C@]2(C(=O)NCCCN(CC)CC(=O)O)CC[C@]3(C)[C@H](CC[C@@H]4[C@@]5(C)CC=C(c6ccc(C(=O)O)cc6)C(C)(C)[C@@H]5CC[C@]43C)[C@@H]12` [Example 102, 4-((1R,3aS,5aR,5bR,7aR,11aS,11bR,13aR,13bR)-3a-(3-((carboxymethyl)(ethyl)amino)propylcarbamoyl)-5a,5b,8,8,11a-pentamethyl-1-(prop-1-en-2-yl)-2,3,3a,4,5,5a,5b,6,7,7a,8,11,11a,11b,12,13,13a,13b-octadecahydro-1H-cyclopenta[a]chrysen-9-yl)benzoic acid], the pEC50 was 7.98.

For `C=C(C)[C@@H]1CC[C@]2(C(=O)N(C)CCc3ccccn3)CC[C@]3(C)[C@H](CC[C@@H]4[C@@]5(C)CC=C(c6ccc(C(=O)O)cc6)C(C)(C)[C@@H]5CC[C@]43C)[C@@H]12` [Example 24, 4-((1R,3aS,5aR,5bR,7aR,11aS,11bR,13aR,13bR)-5a,5b,8,8,11a-pentamethyl-3a-(methyl(2-(pyridin-2-yl)ethyl)carbamoyl)-1-(prop-1-en-2-yl)-2,3,3a,4,5,5a,5b,6,7,7a,8,11,11a,11b,12,13,13a,13b-octadecahydro-1H-cyclopenta[a]chrysen-9-yl)benzoic acid], the negative logarithm of the EC50 (pEC50) is 7.32.

As for `C=C(C)[C@@H]1CC[C@]2(C(=O)NCCNc3ccc(C(=O)O)cc3)CC[C@]3(C)[C@H](CC[C@@H]4[C@@]5(C)CC=C(c6ccc(C(=O)O)cc6)C(C)(C)[C@@H]5CC[C@]43C)[C@@H]12` [Example 114, 4-(2-((1R,3aS,5aR,5bR,7aR,11aS,11bR,13aR,13bR)-9-(4-carboxyphenyl)-5a,5b,8,8,11a-pentamethyl-1-(prop-1-en-2-yl)-2,3,3a,4,5,5a,5b,6,7,7a,8,11,11a,11b,12,13,13a,13b-octadecahydro-1H-cyclopenta[a]chrysene-3a-carboxamido)ethylamino)benzoic acid], the negative logarithm of the EC50 (pEC50) was 7.75.

Staying with this test, now noted: NL43, read-out: EC50 Group.
On to `C=C(C)[C@@H]1CC[C@]2(C(=O)N[C@H](C(=O)O)c3ccccc3)CC[C@]3(C)[C@H](CC[C@@H]4[C@@]5(C)CC=C(c6ccc(C(=O)O)cc6)C(C)(C)[C@@H]5CC[C@]43C)[C@@H]12` [Example 56, 4-((1R,3aS,5aR,5bR,7aR,11aS,11bR,13aR,13bR)-3a-((S)-carboxy(phenyl)methylcarbamoyl)-5a,5b,8,8,11a-pentamethyl-1-(prop-1-en-2-yl)-2,3,3a,4,5,5a,5b,6,7,7a,8,11,11a,11b,12,13,13a,13b-octadecahydro-1H-cyclopenta[a]chrysen-9-yl)benzoic acid], for which the pEC50 is > 7.00.

Turning to `C=C(C)[C@@H]1CC[C@]2(C(=O)N[C@@H](C)CN(C)C)CC[C@]3(C)[C@H](CC[C@@H]4[C@@]5(C)CC=C(c6ccc(C(=O)O)cc6)C(C)(C)[C@@H]5CC[C@]43C)[C@@H]12` [Example 68, 4-((1R,3aS,5aR,5bR,7aR,11aS,11bR,13aR,13bR)-3a-((S)-1-(dimethylamino)propan-2-ylcarbamoyl)-5a,5b,8,8,11a-pentamethyl-1-(prop-1-en-2-yl)-2,3,3a,4,5,5a,5b,6,7,7a,8,11,11a,11b,12,13,13a,13b-octadecahydro-1H-cyclopenta[a]chrysen-9-yl)benzoic acid], the negative logarithm of the EC50 (pEC50) is > 7.00.

Consider `C=C(C)[C@@H]1CC[C@]2(C(=O)N3CCCC3C(=O)O)CC[C@]3(C)[C@H](CC[C@@H]4[C@@]5(C)CC=C(c6ccc(C(=O)O)cc6)C(C)(C)[C@@H]5CC[C@]43C)[C@@H]12` (stereo partly drawn) [Example 128, 1-((1R,3aS,5aR,5bR,7aR,11aS,11bR,13aR,13bR)-9-(4-carboxyphenyl)-5a,5b,8,8,11a-pentamethyl-1-(prop-1-en-2-yl)-2,3,3a,4,5,5a,5b,6,7,7a,8,11,11a,11b,12,13,13a,13b-octadecahydro-1H-cyclopenta[a]chrysene-3a-carbonyl)pyrrolidine-2-carboxylic acid], for which the pEC50 was > 7.00.

For the compound `C=C(C)[C@@H]1CC[C@]2(C(=O)NCCCN3CCOCC3)CC[C@]3(C)[C@H](CC[C@@H]4[C@@]5(C)CC=C(c6ccc(C(=O)O)cc6)C(C)(C)[C@@H]5CC[C@]43C)[C@@H]12` [Example 32, 4-((1R,3aS,5aR,5bR,7aR,11aS,11bR,13aR,13bR)-5a,5b,8,8,11a-pentamethyl-3a-(3-morpholinopropylcarbamoyl)-1-(prop-1-en-2-yl)-2,3,3a,4,5,5a,5b,6,7,7a,8,11,11a,11b,12,13,13a,13b-octadecahydro-1H-cyclopenta[a]chrysen-9-yl)benzoic acid], the pEC50 is > 7.00.

As for `C=C(C)[C@@H]1CC[C@]2(C(=O)NCCC(=O)O)CC[C@]3(C)[C@H](CC[C@@H]4[C@@]5(C)CC=C(c6ccc(C(=O)O)cc6)C(C)(C)[C@@H]5CC[C@]43C)[C@@H]12` [Example 25, 4-((1R,3aS,5aR,5bR,7aR,11aS,11bR,13aR,13bR)-3a-(2-carboxyethylcarbamoyl)-5a,5b,8,8,11a-pentamethyl-1-(prop-1-en-2-yl)-2,3,3a,4,5,5a,5b,6,7,7a,8,11,11a,11b,12,13,13a,13b-octadecahydro-1H-cyclopenta[a]chrysen-9-yl)benzoic acid], the pEC50 is > 7.00.

With `C=C(C)[C@@H]1CC[C@]2(C(=O)NCCCN3CCS(=O)(=O)CC3)CC[C@]3(C)[C@H](CC[C@@H]4[C@@]5(C)CC=C(c6ccc(C(=O)O)c(F)c6)C(C)(C)[C@@H]5CC[C@]43C)[C@@H]12` [Example 105, 4-((1R,3aS,5aR,5bR,7aR,11aS,11bR,13aR,13bR)-3a-((3-(1,1-dioxido-4-thiomorpholinyl)propyl)carbamoyl)-1-isopropenyl-5a,5b,8,8,11a-pentamethyl-2,3,3a,4,5,5a,5b,6,7,7a,8,11,11a,11b,12,13,13a,13b-octadecahydro-1H-cyclopenta[a]chrysen-9-yl)-2-fluorobenzoic acid], the pEC50 was > 7.00.

In the case of `C=C(C)[C@@H]1CC[C@]2(C(=O)NCCN(C)CCOC(=O)CCC(=O)O)CC[C@]3(C)[C@H](CC[C@@H]4[C@@]5(C)CC=C(c6ccc(C(=O)O)cc6)C(C)(C)[C@@H]5CC[C@]43C)[C@@H]12` [Example 115, 4-((1R,3aS,5aR,5bR,7aR,11aS,11bR,13aR,13bR)-3a-(2-((2-(3-carboxypropanoyloxy)ethyl)(methyl)amino)ethylcarbamoyl)-5a,5b,8,8,11a-pentamethyl-1-(prop-1-en-2-yl)-2,3,3a,4,5,5a,5b,6,7,7a,8,11,11a,11b,12,13,13a,13b-octadecahydro-1H-cyclopenta[a]chrysen-9-yl)benzoic acid], the pEC50 is > 7.00.

As to `C=C(C)[C@@H]1CC[C@]2(C(=O)NCCNCCO)CC[C@]3(C)[C@H](CC[C@@H]4[C@@]5(C)CC=C(c6ccc(C(=O)O)cc6)C(C)(C)[C@@H]5CC[C@]43C)[C@@H]12` [Example 74, 4-((1R,3aS,5aR,5bR,7aR,11aS,11bR,13aR,13bR)-3a-(2-(2-hydroxyethylamino)ethylcarbamoyl)-5a,5b,8,8,11a-pentamethyl-1-(prop-1-en-2-yl)-2,3,3a,4,5,5a,5b,6,7,7a,8,11,11a,11b,12,13,13a,13b-octadecahydro-1H-cyclopenta[a]chrysen-9-yl)benzoic acid], the pEC50 was > 7.00.

For `C=C(C)[C@@H]1CC[C@]2(C(=O)NCCN(C)C)CC[C@]3(C)[C@H](CC[C@@H]4[C@@]5(C)CC=C(c6cc(F)c(C(=O)O)c(F)c6)C(C)(C)[C@@H]5CC[C@]43C)[C@@H]12` [Example 122, 4-((1R,3aS,5aR,5bR,7aR,11aS,11bR,13aR,13bR)-3a-(2-(dimethylamino)ethylcarbamoyl)-5a,5b,8,8,11a-pentamethyl-1-(prop-1-en-2-yl)-2,3,3a,4,5,5a,5b,6,7,7a,8,11,11a,11b,12,13,13a,13b-octadecahydro-1H-cyclopenta[a]chrysen-9-yl)-2,6-difluorobenzoic acid], the pEC50 is > 7.00.

With `C=C(C)[C@@H]1CC[C@]2(C(=O)N(C)Cc3ccccc3)CC[C@]3(C)[C@H](CC[C@@H]4[C@@]5(C)CC=C(c6ccc(C(=O)O)cc6)C(C)(C)[C@@H]5CC[C@]43C)[C@@H]12` [Example 18, 4-((1R,3aS,5aR,5bR,7aR,11aS,11bR,13aR,13bR)-3a-(benzyl(methyl)carbamoyl)-5a,5b,8,8,11a-pentamethyl-1-(prop-1-en-2-yl)-2,3,3a,4,5,5a,5b,6,7,7a,8,11,11a,11b,12,13,13a,13b-octadecahydro-1H-cyclopenta[a]chrysen-9-yl)benzoic acid], the pEC50 is < 7.00.

With `C=C(C)[C@@H]1CC[C@]2(C(=O)NCCN3CCNC(=O)C3)CC[C@]3(C)[C@H](CC[C@@H]4[C@@]5(C)CC=C(c6ccc(C(=O)O)cc6)C(C)(C)[C@@H]5CC[C@]43C)[C@@H]12` [Example 108, 4-((1R,3aS,5aR,5bR,7aR,11aS,11bR,13aR,13bR)-5a,5b,8,8,11a-pentamethyl-3a-(2-(3-oxopiperazin-1-yl)ethylcarbamoyl)-1-(prop-1-en-2-yl)-2,3,3a,4,5,5a,5b,6,7,7a,8,11,11a,11b,12,13,13a,13b-octadecahydro-1H-cyclopenta[a]chrysen-9-yl)benzoic acid], the pEC50 was > 7.00.
